Values quoted from earlier work, collected in patent US20100317677A1, “Methods of Treating a Microbial Infection by Modulating RNase-L Expression and/or Activity” (priority 2007, published 2010).

Target: T1, RNase-L (Homo sapiens, UniProt Q05823)
T1 sequence (Q05823 1-741): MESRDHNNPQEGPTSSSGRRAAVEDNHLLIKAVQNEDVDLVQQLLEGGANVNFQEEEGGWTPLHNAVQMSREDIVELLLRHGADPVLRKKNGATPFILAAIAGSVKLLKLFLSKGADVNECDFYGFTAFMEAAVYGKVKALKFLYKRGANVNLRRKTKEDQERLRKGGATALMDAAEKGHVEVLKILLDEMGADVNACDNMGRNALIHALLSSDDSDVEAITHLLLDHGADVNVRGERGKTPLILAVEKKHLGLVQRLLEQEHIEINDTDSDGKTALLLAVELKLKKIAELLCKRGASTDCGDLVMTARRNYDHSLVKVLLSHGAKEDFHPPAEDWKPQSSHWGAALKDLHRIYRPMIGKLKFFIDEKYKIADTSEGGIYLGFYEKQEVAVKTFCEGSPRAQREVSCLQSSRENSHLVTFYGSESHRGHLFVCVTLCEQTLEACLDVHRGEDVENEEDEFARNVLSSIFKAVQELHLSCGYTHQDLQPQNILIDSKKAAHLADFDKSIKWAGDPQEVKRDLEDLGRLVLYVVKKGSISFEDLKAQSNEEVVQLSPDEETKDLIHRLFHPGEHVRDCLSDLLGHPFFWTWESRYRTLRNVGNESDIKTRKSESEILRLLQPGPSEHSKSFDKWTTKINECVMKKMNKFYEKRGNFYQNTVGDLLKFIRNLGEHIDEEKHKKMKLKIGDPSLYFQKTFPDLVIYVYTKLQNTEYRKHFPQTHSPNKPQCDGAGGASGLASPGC
Settings: statement in words, cited from Thakur et al. 2007 and other literature

Effect on the activity of RNase-L: increases the activity of RNase-L
Substance: px5′A(2′p5′A)n [2-5A]
